Experimental data reported in article PMC7366380, “Discovery of a Potent and Selective Covalent Inhibitor and Activity-Based Probe for the Deubiquitylating Enzyme UCHL1, with Antifibrotic Activity” (Journal of the American Chemical Society, 2020).
Values joined by “and” are separate entries in the source; they are usually repeats but may differ in a detail not shown here. Equal entries are not always repeated.

Tests used:
Experiment in all cases: In-cell proteome-wide competitive ABPP, HEK293: other DUBs and proteins
[1] = target: DUBs and other proteins in HEK293 cells (Homo sapiens, UniProt P54578); conditions: replicates A-C; for Log2 reporter intensity values: USP14: competition with ABP 2, DMSO substract (FC); for Log2 reporter intensity values: USP14, DMSO subtracted
[2] = target: DUBs and other proteins in HEK293 cells (Homo sapiens, UniProt Q93009); conditions: replicates A-C; for Log2 reporter intensity values: USP7: DMSO substract (FC); for Log2 reporter intensity values: USP7, DMSO subtracted
[3] = target: DUBs and other proteins in HEK293 cells (Homo sapiens, UniProt Q6P2Q9); conditions: replicates A-C; for Log2 reporter intensity values: PRPF8: DMSO substract (FC); for Log2 reporter intensity values: PRPF8, DMSO subtracted
[4] = target: T1, DUBs and other proteins in HEK293 cells (Homo sapiens, UniProt Q53GS9); conditions: replicates A-C; for Log2 reporter intensity values: USP39: DMSO substract (FC); for Log2 reporter intensity values: USP39, DMSO subtracted
T1 sequence (Q53GS9 1-565): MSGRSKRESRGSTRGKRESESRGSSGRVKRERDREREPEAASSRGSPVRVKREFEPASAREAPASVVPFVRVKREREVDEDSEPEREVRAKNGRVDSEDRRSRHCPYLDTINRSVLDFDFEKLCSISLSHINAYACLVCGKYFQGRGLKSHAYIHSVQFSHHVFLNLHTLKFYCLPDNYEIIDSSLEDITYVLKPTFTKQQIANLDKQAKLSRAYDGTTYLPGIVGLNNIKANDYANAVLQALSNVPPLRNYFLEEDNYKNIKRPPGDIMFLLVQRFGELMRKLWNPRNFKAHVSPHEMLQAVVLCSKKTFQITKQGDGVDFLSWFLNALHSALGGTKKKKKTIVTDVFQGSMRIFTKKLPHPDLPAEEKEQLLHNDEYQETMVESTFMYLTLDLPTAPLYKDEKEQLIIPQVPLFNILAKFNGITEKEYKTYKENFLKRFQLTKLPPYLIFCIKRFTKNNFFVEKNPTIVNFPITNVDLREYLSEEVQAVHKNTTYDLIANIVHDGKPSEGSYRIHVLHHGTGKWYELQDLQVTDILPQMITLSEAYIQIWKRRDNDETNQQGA

[5] = target: DUBs and other proteins in HEK293 cells (Homo sapiens, UniProt O00487); conditions: replicates A-C; for Log2 reporter intensity values: PSMD14: DMSO substract (FC); for Log2 reporter intensity values: PSMD14, DMSO subtracted
[6] = target: T2, DUBs and other proteins in HEK293 cells (Homo sapiens, UniProt Q86UV5); conditions: for Log2 reporter intensity values: USP48: DMSO substract (FC), replicates A-B; for Log2 reporter intensity values: USP48, DMSO subtracted
T2 sequence (Q86UV5 1-1035): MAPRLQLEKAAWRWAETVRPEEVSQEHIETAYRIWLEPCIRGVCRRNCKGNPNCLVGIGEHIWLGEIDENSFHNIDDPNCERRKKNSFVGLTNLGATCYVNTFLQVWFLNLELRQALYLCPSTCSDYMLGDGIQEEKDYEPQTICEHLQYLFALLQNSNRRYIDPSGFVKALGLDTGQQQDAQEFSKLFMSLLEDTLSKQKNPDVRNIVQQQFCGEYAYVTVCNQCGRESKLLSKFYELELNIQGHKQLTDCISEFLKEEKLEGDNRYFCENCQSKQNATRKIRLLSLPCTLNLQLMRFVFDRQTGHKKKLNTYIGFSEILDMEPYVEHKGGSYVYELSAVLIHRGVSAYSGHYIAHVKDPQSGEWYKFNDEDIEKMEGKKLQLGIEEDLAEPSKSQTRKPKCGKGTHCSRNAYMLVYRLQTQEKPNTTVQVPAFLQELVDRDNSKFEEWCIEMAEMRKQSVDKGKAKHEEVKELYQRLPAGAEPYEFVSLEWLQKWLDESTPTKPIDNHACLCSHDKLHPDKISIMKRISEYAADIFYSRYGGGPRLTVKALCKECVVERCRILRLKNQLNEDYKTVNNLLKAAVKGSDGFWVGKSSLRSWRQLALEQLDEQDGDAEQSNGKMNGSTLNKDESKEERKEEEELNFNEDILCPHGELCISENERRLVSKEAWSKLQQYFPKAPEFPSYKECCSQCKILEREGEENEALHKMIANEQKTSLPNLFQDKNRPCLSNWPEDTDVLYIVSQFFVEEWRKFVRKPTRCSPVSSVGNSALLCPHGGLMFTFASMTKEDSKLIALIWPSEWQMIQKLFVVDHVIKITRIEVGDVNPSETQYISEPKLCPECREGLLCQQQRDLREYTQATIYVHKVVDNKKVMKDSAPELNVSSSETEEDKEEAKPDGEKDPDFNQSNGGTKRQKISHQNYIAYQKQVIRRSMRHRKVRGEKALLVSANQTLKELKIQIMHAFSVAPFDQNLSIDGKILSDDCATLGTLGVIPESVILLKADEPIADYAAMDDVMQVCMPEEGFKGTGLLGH

[7] = target: DUBs and other proteins in HEK293 cells (Homo sapiens, UniProt Q96BN8); conditions: replicates A-C; for Log2 reporter intensity values: OTULIN: DMSO substract (FC); for Log2 reporter intensity values: OTULIN, DMSO subtracted
[8] = 1 at 1 μM, competition with ABP 2
[9] = 1 at 4 μM, competition with ABP 2

Chain of DUBs and other proteins in HEK293 cells (Homo sapiens, UniProt O00487) (O00487 whole entry): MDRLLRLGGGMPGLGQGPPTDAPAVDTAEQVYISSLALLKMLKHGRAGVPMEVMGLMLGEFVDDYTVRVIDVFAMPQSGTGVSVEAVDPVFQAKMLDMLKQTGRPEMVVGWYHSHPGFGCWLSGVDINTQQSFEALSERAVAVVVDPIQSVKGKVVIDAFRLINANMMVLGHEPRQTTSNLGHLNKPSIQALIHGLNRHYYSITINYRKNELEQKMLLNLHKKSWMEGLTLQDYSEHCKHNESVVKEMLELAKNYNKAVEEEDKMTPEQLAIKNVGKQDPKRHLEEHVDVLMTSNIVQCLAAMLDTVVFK
Chain of DUBs and other proteins in HEK293 cells (Homo sapiens, UniProt P54578) (P54578 whole entry): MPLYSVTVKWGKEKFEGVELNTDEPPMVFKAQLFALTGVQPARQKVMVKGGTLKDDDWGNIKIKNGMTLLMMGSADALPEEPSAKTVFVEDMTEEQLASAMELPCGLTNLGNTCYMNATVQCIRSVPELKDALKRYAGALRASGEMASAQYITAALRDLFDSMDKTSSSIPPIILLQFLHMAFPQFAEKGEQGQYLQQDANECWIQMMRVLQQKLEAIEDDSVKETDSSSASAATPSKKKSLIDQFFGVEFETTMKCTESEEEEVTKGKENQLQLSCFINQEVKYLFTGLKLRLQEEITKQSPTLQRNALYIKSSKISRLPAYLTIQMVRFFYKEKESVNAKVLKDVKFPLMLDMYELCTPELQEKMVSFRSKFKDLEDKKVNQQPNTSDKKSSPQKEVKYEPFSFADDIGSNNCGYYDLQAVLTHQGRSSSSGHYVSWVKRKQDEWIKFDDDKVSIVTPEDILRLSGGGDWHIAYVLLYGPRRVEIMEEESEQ
Chain of DUBs and other proteins in HEK293 cells (Homo sapiens, UniProt Q93009) (Q93009 whole entry): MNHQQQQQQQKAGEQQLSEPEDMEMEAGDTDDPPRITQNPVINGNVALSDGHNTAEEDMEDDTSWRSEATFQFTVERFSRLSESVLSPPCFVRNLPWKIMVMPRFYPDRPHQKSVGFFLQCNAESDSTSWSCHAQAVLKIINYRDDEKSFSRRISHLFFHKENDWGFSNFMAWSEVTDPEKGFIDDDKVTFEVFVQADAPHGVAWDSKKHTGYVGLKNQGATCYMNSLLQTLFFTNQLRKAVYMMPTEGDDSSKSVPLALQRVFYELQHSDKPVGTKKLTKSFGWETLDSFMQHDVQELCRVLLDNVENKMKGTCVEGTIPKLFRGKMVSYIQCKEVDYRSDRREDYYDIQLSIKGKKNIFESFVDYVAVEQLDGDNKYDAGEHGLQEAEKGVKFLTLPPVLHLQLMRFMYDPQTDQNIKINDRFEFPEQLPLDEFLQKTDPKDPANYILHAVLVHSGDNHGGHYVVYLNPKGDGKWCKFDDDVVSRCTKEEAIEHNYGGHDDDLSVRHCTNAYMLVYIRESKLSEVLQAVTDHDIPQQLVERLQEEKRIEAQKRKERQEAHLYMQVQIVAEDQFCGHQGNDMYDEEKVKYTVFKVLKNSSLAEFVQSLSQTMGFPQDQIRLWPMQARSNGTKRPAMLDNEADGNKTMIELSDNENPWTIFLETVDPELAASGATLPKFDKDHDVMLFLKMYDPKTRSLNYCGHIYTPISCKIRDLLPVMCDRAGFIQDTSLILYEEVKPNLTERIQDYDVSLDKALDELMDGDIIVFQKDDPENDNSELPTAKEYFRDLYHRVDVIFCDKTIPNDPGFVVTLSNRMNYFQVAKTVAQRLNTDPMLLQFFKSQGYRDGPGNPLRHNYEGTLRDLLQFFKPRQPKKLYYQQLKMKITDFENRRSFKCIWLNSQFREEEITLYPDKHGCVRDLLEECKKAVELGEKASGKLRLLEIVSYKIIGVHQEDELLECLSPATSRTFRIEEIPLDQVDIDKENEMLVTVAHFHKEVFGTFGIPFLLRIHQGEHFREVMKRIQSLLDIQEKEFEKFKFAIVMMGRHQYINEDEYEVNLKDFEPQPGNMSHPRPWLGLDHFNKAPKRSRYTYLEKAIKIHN
Chain of DUBs and other proteins in HEK293 cells (Homo sapiens, UniProt Q96BN8) (Q96BN8 whole entry): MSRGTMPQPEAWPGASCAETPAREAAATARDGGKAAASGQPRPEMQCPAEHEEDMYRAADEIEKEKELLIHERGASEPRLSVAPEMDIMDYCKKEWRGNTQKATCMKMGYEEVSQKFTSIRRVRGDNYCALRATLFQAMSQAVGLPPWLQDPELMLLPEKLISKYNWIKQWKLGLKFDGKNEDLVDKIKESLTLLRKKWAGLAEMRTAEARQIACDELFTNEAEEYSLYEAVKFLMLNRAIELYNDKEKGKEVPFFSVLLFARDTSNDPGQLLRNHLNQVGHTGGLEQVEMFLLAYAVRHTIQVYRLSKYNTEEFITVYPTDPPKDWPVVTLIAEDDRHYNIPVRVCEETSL

N#CN1CCC[C@H]1C(=O)N1CCc2c(-c3c[nH]c4ncccc34)cccc21 [Compound 1]
Log2 reporter intensity values: USP14 ([1]; 1 at 1 μM): 1.068 and 1.073 and 1.08
Log2 reporter intensity values: USP14 ([1]; 1 at 4 μM): 1.026 and 1.014 and 1.052
Log2 reporter intensity values ([1]; 1_1 μM): 0.06753 and 0.073 and 0.0796
Log2 reporter intensity values ([1]; 1_4 μM): 0.02617 and 0.01386 and 0.05174
Log2 reporter intensity values ([1]; 1 at 1 μM): 0.09459 and 0.102 and 0.1108
Log2 reporter intensity values ([1]; 1 at 4 μM): 0.03759 and 0.02017 and 0.07309
Log2 reporter intensity values: USP7 [2, 8]: 1.015 and 0.998 and 1.012
Log2 reporter intensity values: USP7 [2, 9]: 1.024 and 0.9908 and 1.009
Log2 reporter intensity values ([2]; 1_1 μM): 0.01464 and -0.002291 and 0.01166
Log2 reporter intensity values ([2]; 1_4 μM): 0.02367 and -0.009481 and 0.008925
Log2 reporter intensity values ([2]; 1 at 1 μM): 0.02137 and -0.002902 and 0.01712
Log2 reporter intensity values ([2]; 1 at 4 μM): 0.03415 and -0.01333 and 0.01322
Log2 reporter intensity values: PRPF8 [3, 8]: 0.961 and 0.941 and 0.9412
Log2 reporter intensity values: PRPF8 [3, 9]: 0.9254 and 0.9448 and 0.8776
Log2 reporter intensity values ([3]; 1_1 μM): -0.03926 and -0.05927 and -0.05901
Log2 reporter intensity values ([3]; 1_4 μM): -0.07482 and -0.05547 and -0.1226
Log2 reporter intensity values ([3]; 1 at 1 μM): -0.05742 and -0.08778 and -0.08738
Log2 reporter intensity values ([3]; 1 at 4 μM): -0.1118 and -0.08196 and -0.1883
Log2 reporter intensity values: USP39 [4, 8]: 1.016 and 0.9671 and 0.9953
Log2 reporter intensity values: USP39 [4, 9]: 1.053 and 0.9437 and 0.9559
Log2 reporter intensity values ([4]; 1_1 μM): 0.01573 and -0.03349 and -0.00527
Log2 reporter intensity values ([4]; 1_4 μM): 0.0526 and -0.05693 and -0.04466
Log2 reporter intensity values ([4]; 1 at 1 μM): 0.02338 and -0.04824 and -0.006739
Log2 reporter intensity values ([4]; 1 at 4 μM): 0.0748 and -0.08363 and -0.065
Log2 reporter intensity values: PSMD14 [5, 8]: 1.038 and 0.9518 and 1.018
Log2 reporter intensity values: PSMD14 [5, 9]: 1.04 and 0.9939 and 0.9281
Log2 reporter intensity values ([5]; 1_1 μM): 0.0358 and -0.05091 and 0.01579
Log2 reporter intensity values ([5]; 1_4 μM): 0.03701 and -0.008736 and -0.0746
Log2 reporter intensity values ([5]; 1 at 1 μM): 0.05445 and -0.07134 and 0.02638
Log2 reporter intensity values ([5]; 1 at 4 μM): 0.05612 and -0.008793 and -0.1077
Log2 reporter intensity values: USP48 [6, 8]: 1.114 and 0.9292
Log2 reporter intensity values: USP48 [6, 9]: 1.018 and 0.949
Log2 reporter intensity values ([6]; 1_1 μM, replicates A-B (C NaN)): 0.113 and -0.07208
Log2 reporter intensity values ([6]; 1_4 μM, replicates A-B (C NaN)): 0.01672 and -0.0523
Log2 reporter intensity values ([6]; 1 at 1 μM, replicates A-C): 0.1561 and -0.1059
Log2 reporter intensity values ([6]; 1 at 4 μM, replicates A-C): 0.02574 and -0.07554
Log2 reporter intensity values: OTULIN [7, 8]: 1.158 and 1.113 and 1.037
Log2 reporter intensity values: OTULIN [7, 9]: 1.068 and 1.004 and 1.156
Log2 reporter intensity values ([7]; 1_1 μM): 0.1579 and 0.1121 and 0.03603
Log2 reporter intensity values ([7]; 1_4 μM): 0.06743 and 0.003361 and 0.1557
Log2 reporter intensity values ([7]; 1 at 1 μM): 0.2122 and 0.154 and 0.0518
Log2 reporter intensity values ([7]; 1 at 4 μM): 0.09485 and 0.0056 and 0.2094

C#Cc1cnc2[nH]cc(-c3cccc4c3CCN4C(=O)[C@@H]3CCCN3C#N)c2c1 [Compound 2]
Log2 reporter intensity values ([1]; 20 nM ABP 2): 0.1674 and 0.2186 and 0.2005 and 0.1633 and 0.1489
Log2 reporter intensity values: USP7 ([2]; 20 nM ABP 2 alone): 0.9183 and 1.036 and 1.009
Log2 reporter intensity values ([2]; 20 nM ABP 2): 0.05058 and 0.01361 and -0.082 and 0.009195
Log2 reporter intensity values: PRPF8 ([3]; 20 nM ABP 2 alone): 0.8057 and 0.8767 and 0.8316
Log2 reporter intensity values ([3]; 20 nM ABP 2): -0.3117 and -0.1898 and -0.2661 and -0.1946 and -0.1687
Log2 reporter intensity values: USP39 ([4]; 20 nM ABP 2 alone): 0.9355 and 0.9539 and 0.9302
Log2 reporter intensity values ([4]; 20 nM ABP 2): -0.09621 and -0.06804 and -0.1044 and -0.06512 and -0.04668 and -0.07041
Log2 reporter intensity values: PSMD14 ([5]; 20 nM ABP 2 alone): 0.9494 and 1.033 and 1.015
Log2 reporter intensity values ([5]; 20 nM ABP 2): -0.07484 and 0.0464 and 0.02103 and -0.05321 and 0.03002 and 0.01203
Log2 reporter intensity values: USP48 ([6]; 20 nM ABP 2 alone): 0.9588 and 0.9788
Log2 reporter intensity values ([6]; 20 nM ABP 2, replicates A-B (C NaN)): -0.04252 and -0.02245
Log2 reporter intensity values ([6]; 20 nM ABP 2, replicates A-C): -0.06076 and -0.03088
Log2 reporter intensity values: OTULIN ([7]; 20 nM ABP 2 alone): 0.9844
Log2 reporter intensity values ([7]; 20 nM ABP 2): 0.01067 and 0.1122 and -0.02265 and 0.006896 and 0.08034 and -0.01611
